Test results as given in patent US10940139B2, “Compounds that interact with the Ras superfamily for the treatment of cancers, inflammatory diseases, rasopathies, and fibrotic disease” (Shy Therapeutics LLC, priority 2017, dated 2021).

How the values were obtained:
Assay in all cases: Ras GTP binding domain inhibition assay (labeled GTP)
KRas G12C mutant = KRas G12C mutant (Homo sapiens (Human), UniProt P01116, G12C); conditions: 20 μM compound; read-out: % Inhibition at 20 μM KRas G12C
Procedure, shortened: (§1)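 Ni-plate capture of His-KRas (3-10 μg/ml, o/n, 4° C); Tris pH 7.5/MgCl2/DTT buffer, 1% DMSO. Cpd 20 μM or titration, 3 h RT. Cy3/Cy5-GTP 45 min RT, wash, fluorescence of bound GTP.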

[1] = target: KRas G12C/Q61H double mutant (Homo sapiens (Human), UniProt P01116, G12C/Q61H); conditions: 20 μM compound; read-out: % Inhibition at 20 μM KRas G12C Q61H
Chain of KRas G12C/Q61H double mutant (P01116-2 other isoform, or with tags, fused parts or gaps G12C/Q61H): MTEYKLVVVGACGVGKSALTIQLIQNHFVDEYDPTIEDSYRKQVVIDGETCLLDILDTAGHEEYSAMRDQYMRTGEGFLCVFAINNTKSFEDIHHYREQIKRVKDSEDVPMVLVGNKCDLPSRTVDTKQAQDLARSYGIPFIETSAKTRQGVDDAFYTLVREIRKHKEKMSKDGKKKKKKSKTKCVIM
Procedure, shortened: as §1

KRas wild type = KRas wild type (Homo sapiens (Human), UniProt P01116); conditions: 20 μM compound; read-out: % Inhibition at 20 μM KRas wild type
Chain of KRas wild type (P01116-2 other isoform, or with tags, fused parts or gaps): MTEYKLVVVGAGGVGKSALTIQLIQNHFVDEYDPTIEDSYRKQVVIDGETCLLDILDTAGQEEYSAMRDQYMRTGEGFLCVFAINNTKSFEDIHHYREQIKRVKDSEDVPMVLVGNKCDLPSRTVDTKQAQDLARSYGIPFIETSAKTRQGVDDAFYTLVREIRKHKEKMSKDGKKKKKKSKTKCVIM
Procedure, shortened: as §1

[2] = target: KRas G12D/Q61H double mutant (Homo sapiens (Human), UniProt P01116, G12D/Q61H); conditions: 20 μM compound; read-out: % Inhibition at 20 μM KRas G12D Q61H
Chain of KRas G12D/Q61H double mutant (P01116-2 other isoform, or with tags, fused parts or gaps G12D/Q61H): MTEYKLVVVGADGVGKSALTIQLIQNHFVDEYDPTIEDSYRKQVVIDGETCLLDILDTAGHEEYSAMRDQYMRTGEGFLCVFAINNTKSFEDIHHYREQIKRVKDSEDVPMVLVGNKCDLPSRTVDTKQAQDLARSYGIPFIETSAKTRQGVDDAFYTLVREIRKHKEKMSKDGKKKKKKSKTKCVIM
Procedure, shortened: as §1

KRas Q61H mutant = KRas Q61H mutant (Homo sapiens (Human), UniProt P01116, Q61H); conditions: 20 μM compound; read-out: % Inhibition at 20 μM KRas Q61H
Chain of KRas Q61H mutant (P01116-2 other isoform, or with tags, fused parts or gaps Q61H): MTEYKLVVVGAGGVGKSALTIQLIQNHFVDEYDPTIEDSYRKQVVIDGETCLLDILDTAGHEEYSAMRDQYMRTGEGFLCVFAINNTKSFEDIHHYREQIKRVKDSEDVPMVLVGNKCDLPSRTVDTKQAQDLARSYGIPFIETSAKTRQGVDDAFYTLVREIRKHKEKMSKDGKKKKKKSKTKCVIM
Procedure, shortened: as §1

KRas G12D mutant protein = KRas G12D mutant protein (Homo sapiens (Human), UniProt P01116, G12D); conditions: 20 μM compound; read-out: % Inhibition at 20 μM KRas G12D
Chain of KRas G12D mutant protein (P01116-2 other isoform, or with tags, fused parts or gaps G12D): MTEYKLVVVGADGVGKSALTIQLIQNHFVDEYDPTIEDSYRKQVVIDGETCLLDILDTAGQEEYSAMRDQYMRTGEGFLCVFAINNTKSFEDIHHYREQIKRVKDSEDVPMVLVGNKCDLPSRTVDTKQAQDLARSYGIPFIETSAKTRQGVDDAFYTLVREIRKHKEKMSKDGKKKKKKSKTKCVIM

Chain of KRas G12C mutant (P01116-2 other isoform, or with tags, fused parts or gaps G12C): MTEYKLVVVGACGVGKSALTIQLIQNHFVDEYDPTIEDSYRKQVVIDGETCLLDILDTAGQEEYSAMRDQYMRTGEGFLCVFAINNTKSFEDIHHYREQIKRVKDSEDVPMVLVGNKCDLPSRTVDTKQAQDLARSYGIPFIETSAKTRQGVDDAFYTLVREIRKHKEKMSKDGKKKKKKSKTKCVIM

inhibition at 20 µM (KRas G12C mutant)	inhibition at 20 µM [1]	inhibition at 20 µM (KRas wild type)	inhibition at 20 µM [2]	inhibition at 20 µM (KRas Q61H mutant)	inhibition at 20 µM (KRas G12D mutant protein)	Compound
25 to 50%	51 to 75%	51 to 75%	51 to 75%	51 to 75%	51 to 75%	Cc1cnc(-c2ccccn2)nc1NC(=O)Cc1ccc2cnccc2c1 [drawing 2856]
25 to 50%	51 to 75%	25 to 50%	51 to 75%	76 to 100%	25 to 50%	O=C(c1csc2c(O)nc(-c3ccccn3)nc12)N1CCNC(c2cn[nH]c2)C1 (stereo not drawn) [drawing 2858]
1 to 25%	51 to 75%	25 to 50%	25 to 50%	25 to 50%	25 to 50%	Nc1nc(-c2ccccn2)nc2c(-c3ccccc3)csc12 [drawing 2859]
25 to 50%	25 to 50%	1 to 25%	25 to 50%	51 to 75%	51 to 75%	Oc1nc(-c2ccccn2)nc2c(-c3cc(F)ccc3OC(F)F)csc12 [drawing 2860]
1 to 25%	51 to 75%	76 to 100%	51 to 75%	51 to 75%	51 to 75%	Cn1nnc2ccc(-c3csc4c(O)nc(-c5ccccn5)nc34)cc21 [drawing 2861]
25 to 50%	51 to 75%	51 to 75%	51 to 75%	51 to 75%	51 to 75%	O=S1(=O)CCN(Cc2cccc(-c3csc4c(O)nc(-c5ccccn5)nc34)c2)CC1 [drawing 2864]
25 to 50%	25 to 50%	25 to 50%	25 to 50%	25 to 50%	51 to 75%	COc1ccccc1-c1csc2c(O)nc(-c3ccccn3)nc12 [drawing 2870]
25 to 50%	1 to 25%	51 to 75%	25 to 50%	1 to 25%	76 to 100%	COc1cccc(-c2csc3c(O)nc(-c4ccccn4)nc23)c1 [drawing 2872]

Second part, the compound before the results:

Compound	inhibition at 20 µM (KRas G12C mutant)	inhibition at 20 µM [1]	inhibition at 20 µM (KRas wild type)	inhibition at 20 µM [2]	inhibition at 20 µM (KRas Q61H mutant)	inhibition at 20 µM (KRas G12D mutant protein)
Oc1nc(-c2ccccn2)nc2sc3c(c12)CCNC3 [drawing 2851]	25 to 50%	51 to 75%	51 to 75%	51 to 75%	51 to 75%	76 to 100%
Oc1nc(-c2ccccn2)nc2sc3c(c12)CCCNC3 [drawing 2852]	51 to 75%	25 to 50%	25 to 50%	25 to 50%	25 to 50%	51 to 75%
O=C(COCc1ccnc(O)c1)Nc1nc(-c2ccccn2)nc2sccc12 [drawing 2857]	25 to 50%	51 to 75%	25 to 50%	51 to 75%	51 to 75%	25 to 50%
Oc1nc(-c2ccccn2)nc2c(-c3ccccc3F)csc12 [drawing 2868]	25 to 50%	51 to 75%	51 to 75%	51 to 75%	51 to 75%	51 to 75%
Oc1nc(-c2ccccn2)nc2c(-c3ccc(F)cc3F)csc12 [drawing 2871]	25 to 50%	51 to 75%	25 to 50%	51 to 75%	51 to 75%	51 to 75%
Oc1nc(-c2ccccn2)nc2c(-c3cccc(C(F)(F)F)c3)csc12 [drawing 2873]	25 to 50%	25 to 50%	25 to 50%	25 to 50%	51 to 75%	51 to 75%
COc1ccc(F)cc1-c1csc2c(O)nc(-c3ccccn3)nc12 [drawing 2874]	25 to 50%	25 to 50%	25 to 50%	51 to 75%	25 to 50%	51 to 75%
